Target: T1, cgreGFP (Clytia gregaria, UniProt D7PM05)
T1 construct: gene GFP2; full-length, N-terminal polyhistidine tag kept (pET-28a(+)-TEV, NdeI/BamHI), codon-optimized gene, expressed in E. coli BL21(DE3)
T1 sequence (D7PM05 1-235): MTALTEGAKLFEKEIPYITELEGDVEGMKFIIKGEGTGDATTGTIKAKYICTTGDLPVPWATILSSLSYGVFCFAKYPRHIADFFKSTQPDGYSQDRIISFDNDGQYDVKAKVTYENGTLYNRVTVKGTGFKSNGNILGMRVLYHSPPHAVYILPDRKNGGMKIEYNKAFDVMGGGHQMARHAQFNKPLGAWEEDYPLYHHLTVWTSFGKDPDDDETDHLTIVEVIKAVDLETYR
Assay: fluorescence titration (ex […] nm, em […] nm)
Format: binding
Conditions: read-out: K d (apparent)

Row | Kd [mM] | SMILES
1 | 15.1 ± 1.2 | Br [bromide]
2 | 10.7 ± 1.2 | O=[N+]([O-])O [nitrate]
3 | 5.3 | I [iodide]

Row | SMILES | Kd [mM]
4 | Cl [chloride] | 25.2 ± 2

Reference: publication PMC13004581, “Physical Mechanisms of an Unconventional Green Fluorescent Protein Indicator for Chloride” (The Journal of Physical Chemistry. B, 2026)
